Data published in US20200016078A1, “COMPOSITION FOR TRANSDERMAL DELIVERY OF MICRONUTRIENTS AND METHOD OF PREPARATION THEREOF” (CERELIA NUTRITECH PVT LTD, priority 2017, published 2020).

Settings: rat, in vivo, po, 10 mg
Method: The compound was dissolved in 5 ml of distilled water and then made up to 10 ml with distilled water to make a solution of 5 mg/ml concentration. For group 1 (G1), a dose volume of 2 ml formulation containing 10 mg of reference standard was administered to each rat irrespective of the body weight. Test formulation is as provided in example 5B. Test formulation was used as such as the formulation is in gel form for dermal application. 3 gm of the gel formulation containing 10 mg of test cynacobalamine is a test formulation.
One day prior to the dermal application of test item formulation for group 2 (G2) rats, the hair from the back of each rat was removed using hair removal cream and washed with saline. On the day of experiment, the shaved area was wiped with 70% isopropyl alcohol and dried. […] Immediately after application, the area was covered with non-absorbable cotton and was secured with adhesive tape.
Blood was collected through retro orbital plexus using capillary at specified time points i.e. 0.5 hr, 1.0 hr, 3.0 hr, 6.0 hr & 24.0 hrs post-dose. To collect the serum sample, the tubes were kept for 30 min. at room temperature and allowed for coagulation and then separated by centrifugation the tubes at 3000 rpm for 10 min at 4° C.

Cynacobalamine [Oral]
AUC (0-∞): 2775.15 ng·h/mL | Cmax: 205.67 ng/mL | Tmax: 1 h
